Patent publication US9446051B2, “Neuroprotection and myelin repair using nestorone®” (The Population Council, Inc., priority 2009, dated 2016)

How the values were obtained:
[1] = test system: organotypic neonatal rat or mouse cerebellar slice culture; test: Myelination in organotypic cerebellar slice culture, measured by myelin basic protein (MBP) immunoreactivity; type: cell-based
Source text: In experiments conducted in organotypic neonatal rat or mouse cerebellar slice culture, progesterone accelerated axon myelination (13,14).

Bax/Bcl-2 = test: In vivo apoptotic activity, Bax/Bcl-2 ratio by Western blot; settings: indicator of in vivo apoptotic activity
Source text: The effects of various progestins on apoptosis was studied using Western blot analysis to determine the expression level of Bax, an apoptosis mediator by […] to the mitochondria to release apoptotic factors such as cytochrome c and Bcl-2. The ratio of Bax to Bcl-2 was used as an indicator of in vivo apoptotic activity.

[2] = test system: primary hippocampal neurons; test: Neuroprotection of primary hippocampal neurons against glutamate, LDH release; type: cell-based
Description: The effect of NES and other progestins on CNS plasticity and the neuroprotective efficacy against glutamate toxicity has also been evaluated. LDH was measured, as a well-accepted assay, to determine such effect after exposure of the cells to glutamate, and the neuronal viability was assessed under the action of various progestins.
Comparisons of neuroprotection against neurodegenerative insults were carried out. Efficacy was determined in connection with the protection of primary hippocampal neurons against degeneration induced by excitoxic glutamate. Hippocampal neuronal cultures grown on […] culture plates for 7d in vitro were pretreated with vehicle alone or test compounds, followed by exposure to 200 μM glutamate as previously described (13). After glutamate exposure, cultures were washed with HEPES-buffered saline solution and replaced with fresh NBM containing the test compounds or combinations. Cultures were returned to the incubator and incubated for 24 hours prior to analysis of neuronal viability using colorimetric LDH release in the media. Dose-response analysis was conducted for each of the progestins tested, and the results are shown in FIGS. 7A-F. Neuroprotective efficiency was calculated as follows: NE=(Vsample−Vglutamate)/(Vsubcontrol−Vglutamate).

[3] = test system: androgenic, estrogenic and glucocorticoid responses; settings: cited from earlier work
PR^lacz mice with MCAO = test: Transient middle cerebral artery occlusion (MCAO), steroid treatment after reperfusion; type: in vivo, mouse
Description: In experiments conducted using progesterone receptor (PR) deficient mice (PR^−/−) compared with PR^+/− and PR^+/+ mice and both progesterone and Nestorone® were administered after ischemia and reperfusion.
In order to test the effect of steroid treatments after reperfusion, adult male PR^lacz mice were anesthetized and the middle cerebral artery (MCA) was occluded for one hour with an intraluminal filament. After ligature of the left common carotid artery, a nylon monofilament coated with thermo-melting glue was introduced through an arteriotomy performed on the external carotid artery and advanced into the internal carotid artery. Occlusion of the MCA was controlled by monitoring the cerebral blood flow within the MCA territory by laser Doppler flowmetry. The filament was withdrawn one hour after occlusion to allow reperfusion, and the common carotid artery ligature was also removed. The mice were randomly and blindly assigned to either progesterone, allopregnanolone or Nestorone®, or vehicle-treated (sesame oil; sigma). All of the steroids were initially dissolved in a small volume of ethanol and further diluted in sesame oil to obtain the desired final steroid concentrations. Injections were given interperitoneally (IP) at 1, 6, and 24 hours after MCA occlusion (MCAO) according to established neuroprotective protocols. Treated mice were killed at 48 hours after MCAO.
Cerebral infarct volumes and areas were determined after triphenyltetrazolium chloride (TTC) staining of brain sections. The details of this procedure are set forth in “Progesterone Receptors: A Key For Neuroprotection In Experimental Stroke,” Endocrinology, August 2012, 153(8), pp. 1-11, which is incorporated herein by reference thereto in its entirety. […] In FIGS. 11, 12 and 13, after the administration of progesterone and Nestorone®, in neuronal density the infarct (FIG. 11) and the penumbra (FIG. 12) can clearly be shown. In FIG. 13 the decrease in […] in the penumbra after administration of progesterone and Nestorone® is also clearly shown.

[4] = test system: hippocampus of Sprague-Dawley ovariectomized female rats; test: In vivo NPC proliferation and cell viability in ovariectomized rats (Western blot, FACS of BrdU+ cells); design: species or system rat
Description: The generalized ability of the above in vitro findings to the in vivo condition were investigated. Analyses of NPC proliferation in rats and cell viability were conducted in three-month-old Sprague-Dawley ovariectomized female rats with various of the progestins. […] In order to assess the total number of BrdU+ cells, the contralateral hippocampal hemisphere used for protein analysis was fixed and processed by FACS analysis. The total number of BrdU+ cells per each hippocampus was determined and normalized to that of vehicle control. […] In order to measure cell viability in terms of promotion of mitochondrial function and reduction in oxidative damage expression of the alpha subunit of ATP synthase-Complex V (CVα) of the mitochondrial oxidative phosphorylation pathway was assessed by Western blot analysis.

[5] = test system: neural progenitor cell (NPC); test: Neural progenitor cell proliferation, BrdU chemiluminescence ELISA; type: cell-based, rat
Description: In vitro studies were carried out to determine neural progenitor cell (NPC) regeneration in rats. Cell proliferation was determined by S phase incorporation of BrdU. After 4 to 6 hours starvation (medium without supplements), rNPCs were loaded with 10 μM BrdU in the presence or absence of bFGF and varying concentrations of P4 or test progestins in unsupplemented maintenance medium for 1d. The rNPCs were then processed as described previously (1, 14). After subtracting the value of the blank (without BrdU loading), data were analyzed using a one-way ANOVA, followed by a Neuman-Keuls post hoc test.

[6] = test system: hippocampi of ovariectomized female Sprague Dawley rats; type: in vivo; settings: progestin plus E2, hippocampi 24 hours after injection, FIG. 9A
Description: The impact of the combination of 17β-estradiol (E2) and various progestins on neurogenesis and cell viability […] was also carried out. Young adult ovariectomized female Sprague Dawley rates were thus divided into six groups and received injection of either E2 alone or E2 combined with one of the progestins. Hippocampi were isolated 24 hours later for Western blot analysis and flow cytometry to determine the impact of treatment on cell viability and neurogenesis respectively. The expression level of PCNA was assessed to determine the impact of the treatment compounds on entry into the cell cycle required for neurogenesis.

[7] = test system: lysolecithin-demyelinated cerebellar slices; test: Remyelination of lysolecithin-demyelinated cerebellar slices (MBP staining intensity); type: cell-based, rat or mouse; settings: NES 20 μM, 3 days of incubation
Description: In the same animal model, cerebellar slices were cultured until myelination was complete, then incubated overnight with lysolecithin (LYSO) to produce demyelination utilizing a known technique, (15) followed by 3 days of incubation with NES 20 μM in fresh culture medium (10% penetration in slices). Slices were immunostained for MBP. […] MBP staining intensity was measured in cerebellar slices after completion of normal myelination, after demyelination with lysolecithin, and after 3 days of incubation with NES at 20 μm, RU486 at 10 μM, or NES+RU486.

[8] = PR^+/+ mice, 48 hours after MCAO

SMILES: C=C1C[C@H]2[C@@H]3CCC4=CC(=O)CC[C@@H]4[C@H]3CC[C@]2(C)[C@@]1(OC(C)=O)C(C)=O [Nestorone®, 16-methylene-17α-acetoxy-19-norpregn-4-ene-3,20-dione]
- promyelinating potency relative to PROG [1]: significantly more potent than PROG
- concentration of equal promyelinating activity ([1]; NES at 20 μm as active as PROG at 50 μm (FIG. 1)): 20 μm
- myelination measured by myelin basic protein (MBP) immunoreactivity ([1]; cerebellar slice culture): promote dose-dependent myelination
- ratio of Bax/Bcl-2 expression (Bax/Bcl-2): no effect
- neuroprotective efficacy against glutamate toxicity (LDH) ([2]; FIG. 5, NES and PROG at 10−7M): exerted the higher efficacy
- neuroprotective efficacy against 200 μM glutamate (LDH release) compared with progesterone ([2]; dose-response, FIGS. 7A-F): comparable neuroprotective efficacy to that of progesterone
- androgenic response [3]: no androgenic or estrogenic action at all
- estrogenic response [3]: no androgenic or estrogenic action at all
- glucocorticoid response [3]: does not elicit a glucocorticoid effect except at doses 2.000-fold the therapeutic dose
- total infarct volume and ischemic lesions in cerebral cortex and subcortical structures, PR^+/+ mice (PR^lacz mice with MCAO; PR^+/+ mice): clearly reduced
- increase of time on the rotarod (PR^lacz mice with MCAO; [8]): 33%
- reduction of ischemic lesions in cerebral cortex (PR^lacz mice with MCAO; [8]): 22%
- reduction of ischemic lesions in subcortical structures (PR^lacz mice with MCAO; [8]): 52%
- reduction of total infarct volume (PR^lacz mice with MCAO; PR^+/+ mice, 48 hours after MCAO, IP at 1, 6 and 24 hours): 32%
- total infarct volume and ischemic lesions in cerebral cortex and subcortical structures, PR^+/− mice (PR^lacz mice with MCAO; PR^+/− mice): not
- protection against ischemic damage compared with progesterone (PR^lacz mice with MCAO; PR^−/−, PR^+/− and PR^+/+ mice, after ischemia and reperfusion): at least comparable results
- efficient neuroprotective dose (PR^lacz mice with MCAO; after stroke): 0.08 mg/kg
- dose improving neurological outcomes relative to that of progesterone (PR^lacz mice with MCAO; mouse, in vivo): 100 times lower
- microglial density in the penumbra (neuroinflammatory responses) (PR^lacz mice with MCAO; treatment after stroke): reduced microglial density
- neuronal density in the infarct and in the penumbra (PR^lacz mice with MCAO; treatment after stroke): significantly increases the neuronal density
- total number of BrdU+ cells per hippocampus ([4]; FACS, normalized to vehicle control, FIG. 8B): slightly superior to progesterone in significantly increasing Brd+ cell numbers
- CDC2 protein expression ([4]; Western blot): significantly increased
- PCNA expression at the protein level ([4]; Western blot, FIG. 8A): slightly superior to progesterone
- expression of alpha subunit of ATP synthase-Complex V (CVα) ([4]; Western blot, FIG. 8C): increased CVA expression even greater than progesterone and levonorgestrel
- proliferation of progenitor cells compared with progesterone ([5]; FIG. 3 and FIG. 4): as effective or even more effective than progesterone
- NPC proliferation (BrdU incorporation) compared with progesterone ([5]; at 24 hours, FIGS. 6A-D): comparably efficacious at their EC100 concentrations
- PCNA expression and neural progenitor cell proliferation [6]: greatest magnitude of PCNA expression and neural progenitor cell proliferation
- remyelination after lysolecithin demyelination [7]: produced remyelination
